Results on two molecules are retold here after patent US7671211B1, “Substrates for thioredoxin reductase” (priority 1999, dated 2010).

One data set has as its target E.coli Trx-(SH)2 (Escherichia coli, UniProt P0AA25). The experiment in a line: Oxidation of E.coli Trx-(SH)2 by compound A determined by fluorescence spectroscopy. It is filed as biochemical. The note with it: 0.1 μM Trx-(SH)2 mixed with 0.1 μM compound A, pH 7.5, 22° C. The method, then:
Protein fluorescence was measured with a thermostated SPEX-Fluoro Max instrument. Trx-(SH)2 was prepared from E.coli Trx-S2 640 μM which was incubated at room temperature for 20 min with 10 mM DTT. DTT was subsequently removed by gel chromatography (on a NAP-5 column (Pharmacia) using N2 equilibrated buffer). Trx-(SH)2 was mixed with Compound A dissolved in a total volume of 3 ml of a mixture (pH 7.5) of 0.1 M potassium phosphate and 1 mM EDTA, and fluorescence was immediately measured in the spectrofluorimeter at 22° C. Excitation of fluorescence was at 290 nm and emission spectra from 300 to 500 nm were recorded. Fluorescence at 340 nm was used to follow the oxidation of Trx-(SH)2 to record the rate of the reaction.
Mammalian and E.coli Trx have the same active site GPC and reactivity with disulfides. […] N2 equilibrated 0.1 M potassium phosphate was added with 0.1 μM (1.2 μg/ml) of E.coli Trx-(SH)2 and then with 1 mM EDTA (pH 7.5) to prepare a sample. Fluorescence of the sample was excited at 290 nm. The […] at the wavelength range from 300 to 500 nm was recorded. Then 0.1 μM of compound A was added and a spectrum was recorded. […] This is the fastest reaction for oxidation of reduced thioedoxin by a low molecular weight compound.

Data set [1] deals with T1, calf thymus thioredoxin reductase (Bos taurus, UniProt O62768).
T1 construct: Thioredoxin reductase (TrxR) from calf thymus or human placenta were purified to homogeneity; from tissue; host or cells: calf thymus
T1 sequence (O62768 1-499): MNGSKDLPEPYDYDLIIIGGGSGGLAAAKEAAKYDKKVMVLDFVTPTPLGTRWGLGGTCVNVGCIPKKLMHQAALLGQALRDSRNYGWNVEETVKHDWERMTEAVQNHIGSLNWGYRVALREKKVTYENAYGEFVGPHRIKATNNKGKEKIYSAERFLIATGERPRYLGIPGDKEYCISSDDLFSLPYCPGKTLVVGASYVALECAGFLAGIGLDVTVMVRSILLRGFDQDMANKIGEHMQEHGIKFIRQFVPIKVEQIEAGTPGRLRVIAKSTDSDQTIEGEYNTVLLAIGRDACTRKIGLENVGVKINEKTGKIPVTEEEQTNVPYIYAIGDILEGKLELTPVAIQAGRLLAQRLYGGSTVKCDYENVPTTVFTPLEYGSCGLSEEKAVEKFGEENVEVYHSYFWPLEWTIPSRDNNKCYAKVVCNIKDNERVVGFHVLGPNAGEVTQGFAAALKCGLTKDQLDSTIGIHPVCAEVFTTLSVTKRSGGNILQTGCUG
The experiment in a line: Trx-catalyzed insulin disulfide reduction assay. It is filed as biochemical. The note with it: for SH-group: 5 μM human Trx, 10 nM calf thymus thioredoxin reductase, 3 min, 20° C.; for Activity: relative to 0 μM = 100. The method, then: (§1) The activity of thioredoxin reductase was determined in the insulin assay. A mixture of 100 mM potassium phosphate (pH 7.0), 2 mM NADPH, and 0.16 mM insulin was added with Compound A and thioredoxin, and then with thioredoxin reductase in a total volume of 0.55 ml for the reaction. The progress of reduction of insulin disulfides was followed at 340 nm. Generated sulfhydryl or selenol groups were measured at 412 nm by addition of 0.50 ml of a mixture of 6 M guanidine-HCl, 0.20 M Tris-Cl (pH 8.0), 1 mM DTNB and calculated using a molar extinction coefficient of 13,600 M^−1cm^−1. DTNB reducing activity of thioredoxin reductase by using NADPH was measured at 412 nm in 100 mM potassium phosphate (pH 7.0) containing 10 mM EDTA, 0.2 mM NADPH, 5 mM DTNB and 0.1 mg per ml of bovine serum albumin.
(§2) To test whether or not Compound A inhibited thioredoxin reductase, enzyme assays were performed.
(§3) Then 0.5 ml of a mixture containing 6 M guranidine HCl, 0.20 M Tris-HCl (pH 8.0) and 1 mM DTNB was added to stop the reaction and the absorbance at 412 nm was used to calculate the amount of SH-groups generated in insulin. In (B), 10 nM calf thymus thioredoxin reductase was preincubated with or without 50 μM compound A and 100 μM NADPH for 1 h. Then 10 μl of the resulting solution was added to 500 μl of a mixture of 0.1 M Tris-HCl (pH 8.0), 1 mM EDTA and 5 mM DTNB to determine activity at 412 nm. Activity is expressed as the amount of SH-groups generated (μM) after 3 min.

For data set [2], the target named is T2, human thioredoxin reductase (Homo sapiens, UniProt Q16881).
T2 construct: Thioredoxin reductase (TrxR) from human placenta were purified to homogeneity; from tissue; host or cells: human placenta
T2 sequence (Q16881 1-499 isoform Q16881-5): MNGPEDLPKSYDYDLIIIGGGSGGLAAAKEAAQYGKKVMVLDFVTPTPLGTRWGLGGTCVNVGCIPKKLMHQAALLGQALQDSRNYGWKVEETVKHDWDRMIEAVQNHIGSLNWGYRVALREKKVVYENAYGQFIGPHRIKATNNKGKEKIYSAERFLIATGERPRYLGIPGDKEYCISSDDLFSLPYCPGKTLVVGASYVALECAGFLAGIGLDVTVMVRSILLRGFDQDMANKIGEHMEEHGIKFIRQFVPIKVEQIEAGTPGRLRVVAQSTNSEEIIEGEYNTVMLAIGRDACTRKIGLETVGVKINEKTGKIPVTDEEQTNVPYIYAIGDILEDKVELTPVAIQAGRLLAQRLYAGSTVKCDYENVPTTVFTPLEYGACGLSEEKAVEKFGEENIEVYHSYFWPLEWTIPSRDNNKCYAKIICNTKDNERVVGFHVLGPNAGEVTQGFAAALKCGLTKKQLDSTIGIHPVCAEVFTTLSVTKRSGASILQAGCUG
Put plainly: Reduction of Compound A by human thioredoxin reductase (NADPH oxidation at 340 nm, selenol detection with DTNB). The data set is classed as biochemical. The method, then: (§4) Measurements of thioredoxin reductase activity were performed in TF buffer (50 mM Tris-Cl, 1 mM EDTA, pH 7.5) with 100 μM NADPH and a given amount of Compound A. Reactions were carried out with addition of 5 or 10 μl of stock solution of thioredoxin reductase in a final volume of 0.55 ml. Cuvettes used as reference contained the same amount of DMSO as in the samples and also thioredoxin reductase. Absorbance of the control cuvette was automatically subtracted by the spectrophotometer. The reactions were followed at 340 nm.
Compound A absorbs at 340 nm with a 4,000 M^−1cm^−1 molar extinction coefficient, and N-phenyl-2-carboxamidobenzene selenol, the reduction product of selenol by a dithiol, has half the absorption (2000 M^−1cm^−1) at 340 nm. The formation of the compound A-selenol was confirmed by measuring absorption spectra in the presence or absence of excess DTT. In calculations of the formation of compound A-selenol, a molar extinction coefficient of 8,200 M^−1cm^−1 was used since oxidation of NADPH to NADP^+ yields 6,200 M^−1cm^−1.
Compound A 50 μM (●) or 100 μM (□) was dissolved in 0.55 ml of a solution containing 50 mM Tris-Cl, 1 mM EDTA (pH 7.5) and 100 μM NADPH, and mixed with 40 nM human thioredoxin reductase. Absorbance at 340 nm was measured and corrected against the blank value (with the same amounts of enzyme, but without compound A). The same experiments using 50 μm (●) and 100 μM (Δ) Compound A mixed with 17 nM enzyme were performed.
The reaction was fast since with 50 μM Compound A the reaction was complete after 1 min. […] When 6 M guanidine hydrochloride containing DTNB was added to the cuvette at 7 min, an absorbance at 412 nm of 0.400 was measured indicating formation of selenol groups. Compound A itself gave no reaction with DTNB. The reaction with 100 μM compound A was seemingly slower from the decrease in absorbance at 340 nm using 40 nM enzyme.

The target of data set [3] is T2, human thioredoxin reductase. Put plainly: Reduction of hydrogen peroxide by human thioredoxin reductase (hydrogen peroxide reductase activity). The data set is classed as biochemical. The note with it: for effect on reaction rate of hydrogen peroxide reduction: 4.5 μM Trx; for turnover of enzyme (hydrogen peroxide reduction) / fold increase of hydrogen peroxide reductase activity: 0.5 mM hydrogen peroxide, 17 nM human TrxR; for fold increase of hydrogen peroxide reductase activity: versus enzyme alone. On the procedure: as §4
[…] The absorbance at 340 nm was determined against a blank with 17 nM thioredoxin reductase but without hydrogen peroxide. As a result, with 0.50 mM hydroperoxide a turnover number of 30×min^−1 was calculated. Addition of 2 μM compound A stimulated the activity with the enzyme which increased its activity to a turnover of 450×min^−1 or 15-fold. […] Thus, Compound A acts to dramatically increase the hydrogen peroxide reductase activity of thioredoxin reductase and also acts as a thioredoxin peroxidase mimic.
Addition of 4.5 μM thioredoxin to 17 nM thioredoxin reductase stimulated the reduction of hydrogen peroxide. […] The same conditions as in FIG. 5 were applied with only 17 nM thioredoxin reductase (●) and addition of 4.5 μM Trx (Δ). Then […] was added to adjust the final compound A concentration to […].
Thus compound A increased activity of the enzyme with lower more physiologically relevant concentrations, and this increase was about 25-fold. […] Activity is expressed as the variation ratio per min, ΔA340/min. […]

Data set [4] has the same target. Described as above. It is filed as biochemical. The note with it: hydrogen peroxide 2 mM, TrxR 17 nM, human Trx 5 μM.
Data set [5] deals with T1, calf thymus thioredoxin reductase. The experiment in a line: Reduction of DTNB by thioredoxin reductase. It is filed as biochemical. The method, then: as §1, §2, §3
Data set [6] deals with T2, human thioredoxin reductase. The note with it: human Trx-S2, comparison value, cited from earlier work.
Setting [7] is: 2 μM compound A plus 4.5 μM human Trx.

Read-outs that look alike come from different tables or passages of the source.

Sequence of E.coli Trx-(SH)2 (P0AA25 whole entry): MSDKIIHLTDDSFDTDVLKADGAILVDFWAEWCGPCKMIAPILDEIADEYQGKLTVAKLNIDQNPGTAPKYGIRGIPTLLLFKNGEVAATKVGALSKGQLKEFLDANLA

`O=c1c2ccccc2[se]n1-c1ccccc1` [Compound A, 2-phenyl-1,2-benzisoselenazol-3(2H)-one]: on E.coli Trx-(SH)2, the “oxidation rate of Trx-(SH)2” value is over 2e+07 M⁻¹ s⁻¹. The “effect in insulin disulfide reduction assay using thioredoxin and thioredoxin reductase” value in data set [1] was “only a small effect”. The SH-group in data set [1] (5 μM Compound A) amounted to 70.6 µM; in data set [1] (10 μM Compound A), 68.4 µM; in data set [5] (50 μM Compound A preincubated with 10 nM enzyme and 100 μM NADPH for 1 h, after 3 min), 7.5 µM. The Activity in data set [1] (5 μM Compound A) was 89%; in data set [1] (10 μM Compound A) it was 88%; in data set [5] (50 μM Compound A, preincubation 1 h, relative to 0 μM = 100), 103%. In data set [2] (15 nM enzyme, 5, 10 and 20 μM compound A), this molecule displayed a Kcal of 1000 ± 300 min⁻¹. Besides, in data set [2] (15 nM enzyme, 5, 10 and 20 μM compound A, read-out: Km-value as substrate for thioredoxin reductase), the Km was under 5 µM. In data set [2] (50 μM Compound A, 40 nM human thioredoxin reductase, 100 μM NADPH), the “time until reaction complete” value was determined as 1 min. For the same molecule, the “absorbance at 412 nm after DTNB addition (formation of selenol groups)” value in data set [2] (6 M guanidine hydrochloride containing DTNB added at 7 min, 50 μM Compound A, 40 nM enzyme) was found to be 0.400. Also, the “effect on reaction rate of hydrogen peroxide reduction” value in data set [3] (0.5 μM compound A, 17 nM thioredoxin reductase) is recorded as “increased the reaction rate”; in data set [3] (5.5 μM compound A, 17 nM thioredoxin reductase), “stimulated strongly”. Further, in data set [3] (100 μM hydrogen peroxide, 17 nM thioredoxin reductase, 2 μM Compound A), the “fold increase of enzyme activity at low hydrogen peroxide concentration” value is “about 25 fold”. For the same molecule, the “turnover of enzyme (hydrogen peroxide reduction)” value in data set [3] (2 μM compound A) is 450 min⁻¹; in data set [3] (setting [7]) it was 900 min⁻¹. Also, the figures for the “fold increase of hydrogen peroxide reductase activity” value in data set [3] (setting [7]) and in data set [3] (2 μM compound A) were 30 fold and 15 fold, respectively. Besides, the “turnover of Compound A” value in data set [4] was 23 min⁻¹. In addition, in data set [4] (compound A), the enzyme turnover was found to be 1328 min⁻¹. In data set [4] (same rate with 1, 2 and 5 μM compound A), this molecule returned an NADPH oxidation rate of 23 µM/min. In data set [5] (50 μM Compound A and 10 nM enzyme), the “inhibition of thioredoxin reductase with DTNB as substrate” value is given as “No inhibition”. In addition, the “inhibition of the enzyme after preincubation with compound A” value in data set [5] (preincubation in the presence or absence of NADPH) is on record as “did not inhibit”.

B1: human Trx-S2: oxidized human thioredoxin, protein substrate of thioredoxin reductase, used for comparison of Km and Kcal (protein, UniProt P10599 2-105, looked up)
Thioredoxin: VKQIESKTAFQEALDAAGDKLVVVDFSATWCGPCKMIKPFFHSLSEKYSNVIFLEVDVDDCQDVASECEVKCMPTFQFFKKGQKVGEFSGANKEKLEATINELV
modifications: oxidized
notes: oxidized human thioredoxin, protein substrate of thioredoxin reductase, used for comparison of Km and Kcal
With B1, the Kcal in data set [6] was 3000 min⁻¹. Also, the Km in data set [6] (read-out: Km-value as substrate for thioredoxin reductase) is 2500 nM.

By Km is commonly meant the concentration of substrate that gives half-maximal velocity.
